Assay results from patent US7169792B2, “Method of treating bacterial infections using gemifloxacin or a salt thereof and a β-lactam antibiotic” (priority 2002, dated 2007).

Columns and labels:
E. faecalis ATCC 29212 = assay: checkerboard titration, gemifloxacin and cefotaxime (MIC, FIC); type: cell-based, Enterococcus faecalis
Description: 1) The combined effect of gemifloxacin and cefotaxime was investigated in E. faecalis by using a checkerboard titration method. Evaluation for synergistic activity was carried out by calculation of fractional inhibitory concentrations (FICs) according to the method of Eliopoulos et al (1996, Antimicrobial Combinations, Antibiotics in Laboratory Medicine, Victor Lorian, 4th Edition, pp 337–338, Baltimore, Md., Williams and Wilkins).
(§1) E. faecalis ATCC 29212 was obtained from the SmithKline Beecham Anti-Infectives Research Culture Collection and stored at −80° C. in 10% glycerol. Before testing, the isolate was passaged onto agar plates (trypticase soy agar containing 5% sheeps blood) from the frozen stock for two consecutive days. Cation adjusted Mueller Hinton broth (BBL, Cockeysville, Md.) was used for the isolate.
(§2) Checkerboard microtitre broth dilution plates were prepared using the Hamilton MicroLab AT Plus system (Reno, Nev.). Two-fold serial dilutions (50 μl) of cefotaxime were made in columns 1 through 11 of a microtitre plate. Two-fold serial dilutions of gemifloxacin were prepared manually and the MicroLab AT Plus was used to dispense 25 μl of gemifloxacin at each concentration into rows A through G of the microtitre plate. The concentration range tested varied for each drug/organism combination to encompass the MIC endpoints of the individual components. Column 12 contained two fold serial dilutions of gemifloxacin only, and row H contained two fold serial dilutions of cefotaxie only. The last well (H) in column 12 was used as a positive growth control well, containing only medium and test isolate.
(§3) The bacteria were diluted to a 0.5 McFarland standard and then further diluted 1/50. Each well was inoculated with 25 μl of the isolate to give a final inoculum density of approximately 5×10^5 cfu/ml. The MicroLab AT Plus 2 was used to add the inoculum to the microtitre plates. After inoculation, the plates were covered with a 96 well microtitre plate lid and incubated at 35° C. in ambient air for 20–24 hours. A 10 μl aliquot of the inoculum was plated on trypticase soy agar containing 5% sheep blood to determine the purity of the final test inoculum.
(§4) Following incubation, a microtitre mirror reader (Cooke Instruments Ltd., England) was used to assist in determining the microdilution MIC endpoints. The MIC was determined as the lowest concentration of compound that inhibited visible growth of the organism.
(§5) The Fractional Inhibitory Concentrations (FICs) were calculated using the following formula: (A)/(MICA)+(B)/(MICB)=FICA+FICB=FICIndex wherein: • A is the MIC of drug A in the presence of drug B • B is the MIC of drug B in the presence of drug A • MIC A is the MIC of the organism to drug A alone • MIC B is the MIC of the organism to drug B alone • FIC A is the fractional inhibitory concentration of drug A • FIC B is the fractional inhibitory concentration of drug B
(§6) The FIC indices were interpreted using the following criteria: • ≦0.5=Synergy • >0.5–1=Additive • >1–2=Indifference • >2=Antagonism

E. coli ATCC 25922 = assay: checkerboard titration, gemifloxacin and cefaclor (MIC, FIC); type: cell-based, Escherichia coli
Description: as §2, §3, §4, §5, §6
as §1, with “3) E.” for “E.”, “coli” for “faecalis”, “25922” for “29212”, “Cation adjusted Mueller Hinton broth (BBL, Cockeysville, Md.) was used for the isolate.” left out
The combined effect of gemifloxacin and cefaclor was investigated in E. coli ATCC 25922 by using the checkerboard titration method described in Example 1. FIC Indices were calculated and interpreted as in Example 1.

[1] = drug alone, no unit in this line (other lines μg/ml)

- MIC (E. faecalis ATCC 29212; Enterococcus faecalis, ATCC29212, in presence of cefotaxime 64 μg/ml, read-out: gemifloxacin MIC): 8 ng/mL
- gemifloxacin MIC (E. faecalis ATCC 29212; [1]): 0.03
- gemifloxacin MIC (E. faecalis ATCC 29212; in presence of cefotaxime 16 μg/ml): 0.008 µg/mL
- gemifloxacin MIC (E. faecalis ATCC 29212; in presence of cefotaxime 32 μg/ml): 0.008 µg/mL
- MIC (E. coli ATCC 25922; Escherichia coli, ATCC25922, in presence of cefaclor 1 μg/ml, read-out: gemifloxacin MIC): 2 ng/mL
- gemifloxacin MIC (E. coli ATCC 25922; [1]): 0.008
SMILES: CO/N=C1\CN(c2nc3c(cc2F)c(=O)c(C(=O)O)cn3C2CC2)CC1CN (racemic) [gemifloxacin, (R,S)-7-(3-aminomethyl-4-methoxyiminopyrrolidin-1-yl)-1-cyclopropyl-6-fluoro-4-oxo-1,4-dihydro-1,8-naphthyridine-3-carboxylic acid]
